Test results published in the supplement of paper PMC10307832.

Key:
Assay in all cases: relative viability (nuclei count vs DMSO), 5 days (fraction); higher = more cells survive
KIN001-266 + Lapatinib = compound: CCN1CCC(CC1)N2C=C(N=N2)CNC3=CC4=C(C(=CN=C4C(=C3)Cl)C#N)NC5=CC(=C(C=C5)F)Cl [KIN001-266] + CS(=O)(=O)CCNCc1ccc(-c2ccc3ncnc(Nc4ccc(OCc5cccc(F)c5)c(Cl)c4)c3c2)o1 [Lapatinib] (partner 2 µM)
Method in brief: (§1)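 Five library-drug doses in √10 steps were combined with a fixed anchor-drug dose, or a single drug was given alone, by pin tool to lung cancer cell lines in 1536-well plates the day after seeding. Nuclei were stained and counted after 5 days. Relative viability is the nuclei count in treated wells over that in vehicle wells, taken as the median of duplicate plates.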

KIN001-266 + Crizotinib = compound: CCN1CCC(CC1)N2C=C(N=N2)CNC3=CC4=C(C(=CN=C4C(=C3)Cl)C#N)NC5=CC(=C(C=C5)F)Cl [KIN001-266] + C[C@@H](Oc1cc(-c2cnn(C3CCNCC3)c2)cnc1N)c1c(Cl)ccc(F)c1Cl [Crizotinib] (partner 1 µM)
Method in brief: as §1

KIN001-266 + Tozasertib = compound: CCN1CCC(CC1)N2C=C(N=N2)CNC3=CC4=C(C(=CN=C4C(=C3)Cl)C#N)NC5=CC(=C(C=C5)F)Cl [KIN001-266] + Cc1cc(Nc2cc(N3CCN(C)CC3)nc(Sc3ccc(NC(=O)C4CC4)cc3)n2)n[nH]1 [Tozasertib] (partner 0.1 µM)
Method in brief: as §1

KIN001-266 + Decitabine = compound: CCN1CCC(CC1)N2C=C(N=N2)CNC3=CC4=C(C(=CN=C4C(=C3)Cl)C#N)NC5=CC(=C(C=C5)F)Cl [KIN001-266] + Nc1ncn([C@H]2C[C@H](O)[C@@H](CO)O2)c(=O)n1 [Decitabine] (partner 2 µM)
Method in brief: as §1

Cell Line	relative viability (KIN001-266 + Lapatinib; first compound 0.08 µM)	relative viability (KIN001-266 + Lapatinib; first compound 0.253 µM)	relative viability (KIN001-266 + Lapatinib; first compound 0.8 µM)	relative viability (KIN001-266 + Lapatinib; first compound 2.53 µM)	relative viability (KIN001-266 + Lapatinib; first compound 8 µM)	relative viability (KIN001-266 + Crizotinib; first compound 0.08 µM)	relative viability (KIN001-266 + Crizotinib; first compound 0.253 µM)	relative viability (KIN001-266 + Crizotinib; first compound 0.8 µM)	relative viability (KIN001-266 + Crizotinib; first compound 2.53 µM)	relative viability (KIN001-266 + Crizotinib; first compound 8 µM)	relative viability (KIN001-266 + Tozasertib; first compound 0.08 µM)	relative viability (KIN001-266 + Tozasertib; first compound 0.253 µM)	relative viability (KIN001-266 + Tozasertib; first compound 0.8 µM)	relative viability (KIN001-266 + Tozasertib; first compound 2.53 µM)	relative viability (KIN001-266 + Tozasertib; first compound 8 µM)	relative viability (KIN001-266 + Decitabine; first compound 0.08 µM)	relative viability (KIN001-266 + Decitabine; first compound 0.253 µM)	relative viability (KIN001-266 + Decitabine; first compound 0.8 µM)	relative viability (KIN001-266 + Decitabine; first compound 2.53 µM)	relative viability (KIN001-266 + Decitabine; first compound 8 µM)
NCI-H1651	0.912	0.931	0.85	0.962	0.84	0.935	0.872	0.876	0.853	0.823	0.782	0.591	0.51	0.78	0.396	0.629	0.599	0.546	0.572	0.634
NCI-H1666	0.804	0.646	0.671	0.646	0.509	0.963	1.21	1.01	0.964	0.797	0.586	0.642	0.605	0.572	0.486	0.806	0.737	0.662	0.725	0.754
NCI-H1734	1.1	1.32	1.03	0.982	1.02	0.647	0.601	0.589	0.681	0.51	0.256	0.295	0.279	0.232	0.243	0.513	0.512	0.421	0.48	0.433
NCI-H1755	0.987	1.04	1.06	0.996	0.987	0.942	0.798	0.836	0.826	0.718	0.629	0.541	0.583	0.525	0.522	0.67	0.735	0.647	0.654	0.707
NCI-H1915	0.959	0.974	1.02	1.02	0.993	0.895	0.87	0.902	0.918	0.851	0.447	0.418	0.396	0.422	0.369	0.28	0.287	0.249	0.265	0.278
NCI-H1944	0.826	0.895	0.774	0.816	0.828	1.13	1.13	1.1	1.08	1.24	0.25	0.264	0.241	0.235	0.254	0.421	0.459	0.401	0.415	0.393
